Measured values: US9643933B2, “Compounds useful as antibiotic tolerance inhibitors” (priority 2013, dated 2017)
Structures can show the parent of a compound that is named as a salt.

How the values were obtained:
Pyocyanin = Pyocyanin Inhibition Assay; assay type: cell-based, P. aeruginosa, strain PA14; settings: Pseudomonas aeruginosa, PA14, 24 h, read-out: Pyocyanin Inhibition No. IC50 (μM)
Experimental: Test compounds are dissolved in DMSO at 10 mM and stored at −20° C. until needed. Seven test concentrations from 0.0032 micromolar to 31.6 micromolar are used for each compound.
P. aeruginosa, strain PA14, is inoculated into 5 mL of LB broth in a 15-mL sterile glass culture tube and incubated overnight at 37° C. under shaking (˜240 rpm). The overnight culture is then diluted in LB Broth to give an OD600=0.04 (T0 culture). Colony Forming Units (CFU)/mL of the overnight culture and T0 culture are determined by a series of 1:10 serial dilutions in sterile saline. 4×20 μL of each dilution is seeded on LB agar plates and incubated at 35±2° C. for 20 hours. CFU/mL is determined from the dilution that gives 2 to 50 colonies/20 μL.
For concentration response curve (CRC) experiments, internal standard, 2-((5-nitro-1H-indol-2-yl)thio)-N-(4-phenoxyphenyl)acetamide, a compound previously identified as an MvfR inhibitor (see Example 1 of US 2014-0066454 (WO 2012/116010)), and test compounds are serially diluted in DMSO to 200 times each final concentration (0.5% DMSO fmal), and 1 μL/well is dispensed in duplicate into 2 mL wells of a 96-well deep well plate. 200 μL/well of T0 culture are added to each internal standard/test compound well. Wells containing only T0 culture (200 200 μL/well) are used to determine pyocyanin control level and wells containing only LB broth (blank wells) are also included in the plate.
The plate is sealed and incubated at 37° C. under shaking (˜700 rpm) using a microtiter shaker for 24 hours. At the end of the incubation period, the plate is centrifuged at 4,000 g for 40 minutes at room temperature, 100 μL/well of the supernatant is transferred to a 96-microtiter PS flat-bottom plate, and absorbance at 690 nm is determined using SPECTROstar® Nano microplate reader. Pyocyanin concentration (M) is determined using the equation C=A690/(ε×d), where ε is the Pyocyanin extinction coefficient, at A690 nm ε is 4,310 M^−1 cm^−1 and d is the experimentally derived pathlength. The level of pyocyanin in the presence of test compound is expressed as percentage of inhibition with respect to the control. Curve fitting and IC50 determination were carried out using a four-parameter logistic model using GraphPad Prism v.5.

PQS = PQS Inhibition Assay (24 Hour Incubation); assay type: cell-based, P. aeruginosa PA14 wild-type strain; settings: Pseudomonas aeruginosa, PA14, 24 h, read-out: PQS (24 hr) IC50 (μM)
Experimental: Test compounds are dissolved in DMSO at 10 mM and stored at −20° C. until needed. Seven test concentrations from 0.0032 micromolar to 31.6 micromolar are used for each compound. P. aeruginosa PA14 wild-type strain is inoculated into 5 mL LB broth in a 15-mL sterile glass culture tube and incubated overnight at 37° C. under shaking (˜240 rpm). The overnight culture is then diluted in LB Broth to give an OD600=0.04 (T0 culture). Colony Forming Units (CFU)/mL of the overnight culture and T0 culture are determined by a series of 1:10 serial dilutions in sterile saline. 4×20 μL of each dilution is seeded on LB agar plates and incubated at 35±2° C. for 20 hours. CFU/mL is determined from the dilution that gives 2 to 50 colonies/20 μL.
For concentration response curve (CRC) experiments, internal standard (2-((5-nitro-1H-indol-2-yl)thio)-N-(4-phenoxyphenyl)acetamide)) and test compounds are serially diluted in DMSO to give 200 times of each final concentration (0.5% DMSO final), and 1 μL/well is dispensed in duplicate into 2-mL wells of a 96 well deep well plate. 200 μL/well of T0 culture is added to each internal standard/test compound well used to determine PQS control level. Wells containing only LB broth (blank wells) are also included in the plate.
The plate is sealed and incubated at 37° C. for 24 hours under shaking (˜700 rpm) using a microtiter shaker. At the end of the incubation period, 150 μL/well of the deep well plate culture are transferred in a new non-sterile plate, and 150 μL/well of methanol containing tetra-deuterated PQS (D4-PQS) and 2% acetic acid are added to each well. The plate is sealed, shaken at high speed for 5 minutes and centrifuged at 4,000 g for 40 minutes at room temperature. 100 μL/well of the supernatant is then transferred to glass vials (vials crimp 0.2 mL) and kept at 4° C. until LC-MS/MS analysis.
PQSs quantification is carried out by analyzing samples in discrete batches together with spiked standards and blank samples.
Calibration curves are constructed from PQS standards, and respective deuterated PQS is used as an Internal Standards (IS) to calculate the concentration of analytes in the sample and improve the precision of the assay. The back-calculated concentrations of the calibration standards from the calibration curve shall be within ±20% of the nominal values, the range of the analytical method is determined, and the lower and upper limit of quantification specified.
Liquid chromatography separations are performed using an Agilent HP1100 system (Agilent Technologies) coupled with a CTC PAL Autosampler (CTC Analytics AG). Chromatographic retention is obtained using a monolithic column (Chromolith® RP-18, 50×4.6 mm). The solvent system consists of water containing 0.1% (v/v) formic acid (A) and acetonitrile containing 0.1% (v/v) formic acid (B). The gradient elution profile is chosen as follows: 0 min: 70% A (1500 μL/min), 0.3 min: 70% A (1500 μL/min), 1.3 min: 5% A (2500 μL/min), 1.6 min: 5% A (2500 μL/min).
The MS/MS analysis is performed with an API4000 series mass spectrometer (AB Sciex™) operating in Multiple Reaction Monitoring (MRM) mode and equipped with a TIS ion source. The specific ions monitored are PQS (m/z 260→m/z 175) and D4-PQS (m/z 264→m/z 179). The computer systems used in this study to acquire and quantify data may be an Analyst™ v1.5.
PQS in the presence of different concentrations of test compound are expressed as percentage of inhibition of the basal level in control samples. Curve fitting and IC50 estimations are carried out using a four parameter logistic model using GraphPad Prism v.5 program.

| SMILES | IC50 (Pyocyanin) [µM] | IC50 (PQS) [µM] |
| --- | --- | --- |
| Cn1c(SCC(=O)Nc2ccc(Oc3ccccc3)cc2)nc2cc([N+](=O)[O-])ccc21 [Compound 23] | 1 to 10 | > 10 |
| N#Cc1ccc(NC(=O)CNc2nc3cc(Cl)ccc3s2)cc1 [Compound 72, 2-(5-Chlorobenzo[d]thiazol-2-ylamino)-N-(4-cyanophenyl)acetamide] | > 10 | > 10 |
| O=C(CNc1nc2ccc(Cl)cc2s1)Nc1ccc(Oc2cccnc2)cc1 [Compound 73, 2-((6-chlorobenzo[d]thiazol-2-yl)amino)-N-(4-(pyridin-3-yloxy)phenyl)acetamide] | > 10 | > 10 |
| N#Cc1ccc(NC(=O)CNc2nc3cc(Cl)ccc3o2)cc1 [Compound 75, 2-((5-chlorobenzo[d]oxazol-2-yl)amino)-N-(4-cyanophenyl)acetamide] | > 10 | > 10 |
| O=C(CSc1nc2cc(Cl)ccc2[nH]1)Nc1ccc(Oc2ccncc2)cc1 [Compound 76, 2-((5-chloro-1H-benzo[d]imidazol-2-yl)thio)-N-(4-(pyridin-4-yloxy)phenyl)acetamide] | < 0.1 | < 1 |
| O=C(CSc1nc2cc(Cl)ccc2[nH]1)Nc1ccc(Oc2cnccn2)cc1 [Compound 78, 2-((5-chloro-1H-benzo[d]imidazol-2-yl)thio)-N-(4-(pyrazin-2-yloxy)phenyl)acetamide] | < 0.1 | < 1 |
| Cc1ccc(Oc2ccc(NC(=O)CSc3nc4cc(Cl)ccc4[nH]3)cc2)cn1 [Compound 80, 2-((5-chloro-1H-benzo[d]imidazol-2-yl)thio)-N-(4-((6-methylpyridin-3-yl)oxy)phenyl)acetamide] | < 0.1 | < 1 |
| Cc1cncc(Oc2ccc(NC(=O)CSc3nc4cc(Cl)ccc4[nH]3)cc2)c1 [Compound 81, 2-(5-Chloro-1H-benzo[d]imidazol-2-ylthio)-N-(4-(5-methylpyridin-3-yloxy)phenyl)acetamide] | < 0.1 | < 1 |
| O=C(NCCSc1nc2cc(Cl)ccc2[nH]1)c1ccc(Oc2cccnc2)cc1 [Compound 87, N-(2-((5-chloro-1H-benzo[d]imidazol-2-yl)thio)ethyl)-4-(pyridin-3-yloxy)benzamide] | > 10 | > 10 |
| N#Cc1ccc(C(=O)NCCSc2nc3cc(Cl)ccc3[nH]2)cc1 [Compound 88, N-(2-((5-chloro-1H-benzo[d]imidazol-2-yl)thio)ethyl)-4-cyanobenzamide] | > 10 | > 10 |
| N#Cc1ccc(NC(=O)CSc2cc3cc(Cl)ccc3[nH]2)cc1 [Compound 90, 2-((5-Chloro-1H-indol-2-yl)thio)-N-(4-cyanophenyl)acetamide] | 1 to 10 | > 10 |
| O=S(=O)(CSc1nc2cc(Cl)ccc2[nH]1)Nc1ccc(Oc2cccnc2)cc1 [Compound 91, 1-((5-chloro-1H-benzo[d]imidazol-2-yl)thio)-N-(4-(pyridin-3-yloxy)phenyl)methanesulfonamide] | > 10 | > 10 |
| O=C(CCc1nc2ccc(Cl)cc2o1)Nc1ccc(Oc2cccnc2)cc1 [Compound 92, 3-(6-chlorobenzo[d]oxazol-2-yl)-N-(4-(pyridin-3-yloxy)phenyl)propanamide] | > 10 | > 10 |
| O=C(CSc1nc2cc(OC(F)F)ccc2[nH]1)Nc1ccc(Cl)cc1 [Compound 95] | 1 to 10 | > 10 |
| N#Cc1ccc(NC(=O)CSc2nc3cc(C(=O)O)ccc3[nH]2)cc1 [Compound 106] | > 10 | > 10 |
| COC(=O)c1ccc2[nH]c(SCC(=O)Nc3ccc(C#N)cc3)nc2c1 [Compound 112] | > 10 | > 10 |
| N#Cc1ccc(NC(=O)CSc2nc3ccc(-c4ncccn4)cc3[nH]2)cc1 [Compound 113] | > 10 | > 10 |
| N#Cc1ccc(NC(=O)CSc2nc3ccc(-n4cccn4)cc3[nH]2)cc1 [Compound 117] | 1 to 10 | > 10 |
| O=C(CCc1nc2ccc([N+](=O)[O-])cc2[nH]1)Nc1ccc(Cl)cc1 [Compound 134, N-(4-chlorophenyl)-3-(6-nitro-1H-benzo[d]imidazol-2-yl)propanamide hydrochloride] | 1 to 10 | 1 to 5 |
| CN(C)C(=O)Oc1ccc2[nH]c(SCC(=O)Nc3ccc(C#N)cc3)nc2c1 [Compound 135] | > 10 | > 10 |
| CN(C)C(=O)Oc1ccc2[nH]c(SCC(=O)Nc3ccc(Cl)cc3)nc2c1 [Compound 136] | > 10 | > 10 |
| N#Cc1cccc(NC(=O)CSc2nc3cc(Cl)ccc3[nH]2)c1 [Compound 138] | > 10 | > 10 |
| O=C(CSc1nc2cc(Cl)ccc2[nH]1)Nc1ccc2c(c1)OCO2 [Compound 139] | 1 to 10 | > 10 |
| COc1ccc(NC(=O)CSc2nc3c(Cl)cc(Cl)cc3[nH]2)cc1 [Compound 141] | 1 to 10 | > 10 |
| COc1ccc(NC(=O)CSc2nc3ccc(Cl)cc3[nH]2)cc1Cl [Compound 143] | 1 to 10 | 5 to 10 |
| O=C(CSc1nc2ccc(Cl)cc2[nH]1)Nc1ccc(F)cc1F [Compound 144] | 1 to 10 | > 10 |
| N#Cc1ccc(NC(=O)CCc2nc3ccc([N+](=O)[O-])cc3[nH]2)cc1 [Compound 148, N-(4-cyanophenyl)-3-(6-nitro-1H-benzo[d]imidazol-2-yl)propanamide] | 1 to 10 | 5 to 10 |
| N#Cc1ccc(NC(=O)COc2nc3ccc([N+](=O)[O-])cc3[nH]2)cc1 [Compound 149, N-(4-cyanophenyl)-2-((6-nitro-1H-benzo[d]imidazol-2-yl)oxy)acetamide] | 1 to 10 | > 10 |
| O=C(COc1nc2ccc([N+](=O)[O-])cc2[nH]1)Nc1ccc(Cl)cc1 [Compound 150, N-(4-chlorophenyl)-2-((6-nitro-1H-benzo[d]imidazol-2-yl)oxy)acetamide] | 1 to 10 | > 10 |
| O=C(CNc1nc2ccccc2[nH]1)Nc1ccc(Oc2cccnc2)cc1 [Compound 151] | > 10 | > 10 |
